Reference: patent US10775388B2, “Methods of using antibodies to determine periostin levels in a sample” (MEDIMMUNE, LLC, priority 2014, dated 2020)
Several values for one entry are separate records, joined by “and”; a condition that tells them apart may be missing. Equal values may be shown once.

Columns and labels:
[1] = test system: EPIAIRWAY™ tissue (normal and asthmatic lung epithelium); experiment: Periostin levels in IL-13 stimulated […] tissue models (sandwich ELISA); format: cell-based, human; conditions: stimulated with 50 ng/mL IL-13 for 48 hours
Method: Biotin/streptavidin-HRP-based sandwich ELISA assays were performed as follows. Specific details such as anti-periostin capture antibodies, samples to be tested, and anti-periostin detection antibodies are noted for specific experiments in the various examples Variations to standard ELISA protocols are well known to those of ordinary skill in the art, and can be used according to this disclosure.
High binding ELISA plates were coated with an anti-periostin capture mAb, e.g., 4B4.B11 (2 μg/mL in PBS; 100 μL/well), and were incubated overnight at 4° C. The plates were washed three times with 200 μL/well wash buffer (PBS/0.1% TWEEN-20®). Following washing, 200 μL/well block buffer (e.g., PBS/50× dilution of reagent diluent concentrate (available from R & D Systems)/0.05% TWEEN-20® or PBS/3% nonfat dry milk/0.1% TWEEN-20®) was added to each well, and the plates were incubated for one hour at room temperature. The plates were then washed three times as noted above.
For the standard curve, periostin standards (e.g., standards available from R & D Systems Cat #3548-F2) were serially diluted in block buffer, e.g., 2-fold dilutions from 50 ng/mL to 0.78 ng/mL. […] Finally the plates were read on a spectrophotometer at λ=450 nm. […]

[2] = test system: patients with uncontrolled asthma; conditions: above-median vs below-median baseline serum periostin; cited from earlier work
[3] = test system: adults with uncontrolled, severe asthma; experiment: Phase 2b study CD-RI-CAT-354-1049 of SC tralokinumab, subgroup analysis by baseline serum periostin; format: in vivo, human; conditions: for Asthma exacerbation rate reduction: 300 mg Q2W vs placebo
Method: A 5-week screening/run-in period (Week −5 to −1 [Day −1]) preceded randomisation. Starting at Week −4 (Day −28), patients received a fixed-dose combination product of fluticasone/salmeterol, either as an MDI (230 μg/21 μg) at a dose of 2 inhalations twice per day or as a DPI (500 μg/50 μg) at a dose of one inhalation twice per day. If the patient was also taking additional asthma controller medications (including leukotriene modifiers, theophylline, cromones, a secondary ICS, or oral prednisolone 20 mg/day or equivalent OCS), then these medications were to be continued at a stable dose during the screening/run-in and treatment period.
Patients were randomised in a 1:1 ratio to one of 2 cohorts (Cohort 1 or Cohort 2).

[4] = post hoc, 300 mg Q2W, FEV1 reversibility ≥12% and serum periostin < median
[5] = post hoc, 300 mg Q2W, FEV1 reversibility ≥12% and serum periostin ≥ median
[6] = post hoc, reversible patients regardless of serum periostin level

IL-13: 114 amino acid cytokine used to stimulate periostin expression
periostin levels [1]: increase

lebrikizumab: anti-human-IL-13 antibody (SEQ ID NOs 6-7), Roche/Genentech
AER reduction [2]: greater AER reduction
increases in FEV1 [2]: larger increases

tralokinumab: anti-IL-13 monoclonal antibody (SEQ ID NOs 8-9)
percent change from baseline in pre-bronchodilator FEV1 over time ([3]; 300 mg Q2/4W, through to Week 53, periostin < median): No significant increases
Asthma exacerbation rate reduction ([3]; Week 53, ITT (regardless of serum periostin level)): 7%
Asthma exacerbation rate reduction ([3]; Week 53, baseline serum Periostin ≥ Median): 25%
Change from baseline in ACQ-6 ([3]; 300 mg Q2W, ITT): −0.18
Change from baseline in AQLQ ([3]; 300 mg Q2W, ITT): 0.21
Change from baseline in ACQ-6 ([3]; 300 mg Q2W, Periostin < Median): −0.02
Change from baseline in AQLQ ([3]; 300 mg Q2W, Periostin < Median): 0.21
Change from baseline in ACQ-6 ([3]; 300 mg Q2W, Periostin ≥ Median): −0.23
Change from baseline in AQLQ ([3]; 300 mg Q2W, Periostin ≥ Median): 0.22
Percent change from baseline in FEV1 ([3]; 300 mg Q2W, Week 53, ITT (regardless of serum periostin level)): 7.1%
Percent change from baseline in FEV1 ([3]; 300 mg Q2W, Week 53, Periostin < Median): 7.06%
Percent change from baseline in FEV1 ([3]; 300 mg Q2W, Week 53, Periostin ≥ Median): 6.75% and 6.8%
percent change from baseline in pre-bronchodilator FEV1 over time ([3]; 300 mg Q2W, through to Week 53, periostin < median): No significant increases
percent change from baseline in pre-bronchodilator FEV1 over time ([3]; 300 mg Q2W, through to Week 53, periostin >= median): Relative increases
reduction in serum periostin levels ([3]; baseline serum periostin above the median compared to below the median): Greater reduction
increase in FEV1 [3, 4]: 7.62%
reduction in AER [3, 4]: 4%
percentage increase from baseline in pre-bronchodilator FEV1 compared to placebo [3, 5]: 13.85%
reduction in AER [3, 5]: 54%
AER reduction [3, 6]: 34%
increase in FEV1 [3, 6]: 11.07%
serum periostin levels ([3]; soon after the first dose and for the duration of the study): substantially reduced
